# Data published in article PMC10178848, “Modulating fast skeletal muscle contraction protects skeletal muscle in animal models of Duchenne muscular dystrophy” (The Journal of Clinical Investigation, 2023).
# Read-outs that look alike come from different tables or passages of the source.
# System: GRMD plasma proteins
# Assay type: in vivo, dog
# [1] = EDG-5506 treatment to GRMD baseline, Increased in GRMD
compound,measurement,setting,value
O=c1ccc(-c2cnc(OCC(F)(F)F)nc2)nn1Cc1cncc(F)c1 [EDG-5506],Change from GRMD Baseline (fraction): Tyrosine-protein kinase Yes (YES1),[1],-0.1382 fraction
same,Change from GRMD Baseline (fraction): Tyrosine-protein kinase ZAP-70 (ZAP70),[1],-0.1508 fraction
same,Change from GRMD Baseline (fraction): Tyrosine-protein phosphatase non-receptor type 1 (PTPN1),[1],-0.1492 fraction
same,Change from GRMD Baseline (fraction): Tyrosine-protein phosphatase non-receptor type 11 (PTPN11),[1],-0.1298 fraction
same,Change from GRMD Baseline (fraction): UMP-CMP kinase (CMPK1),[1],-0.0444 fraction
same,Change from GRMD Baseline (fraction): Ubiquitin carboxyl-terminal hydrolase 25 (USP25),[1],-0.1723 fraction
same,Change from GRMD Baseline (fraction): Ubiquitin carboxyl-terminal hydrolase isozyme L1 (UCHL1),[1],-0.1135 fraction
same,Change from GRMD Baseline (fraction): Ubiquitin-fold modifier 1 (UFM1),[1],-0.238 fraction
same,Change from GRMD Baseline (fraction): Vascular cell adhesion protein 1 (VCAM1),[1],-0.0642 fraction
same,Change from GRMD Baseline (fraction): Vitamin K-dependent protein C (PROC),[1],-0.2124 fraction
same,Change from GRMD Baseline (fraction): Vitronectin (VTN),[1],-0.1269 fraction
same,Change from GRMD Baseline (fraction): cAMP-dependent protein kinase catalytic subunit alpha (PRKACA),[1],-0.4297 fraction
same,Change from GRMD Baseline (fraction): dCTP pyrophosphatase 1 (DCTPP1),[1],-0.2045 fraction
same,Chitotriosidase-1 (CHIT1): Change from GRMD Baseline (fraction),[1],-0.0569 fraction
same,Chorionic somatomammotropin hormone (CSH1 CSH2): Change from GRMD Baseline (fraction),[1],-0.0697 fraction
same,Chromobox protein homolog 5 (CBX5): Change from GRMD Baseline (fraction),[1],-0.0792 fraction
same,Coagulation Factor X (F10): Change from GRMD Baseline (fraction),[1],0.1015 fraction
same,Coagulation factor IX (F9): Change from GRMD Baseline (fraction),[1],0.0746 fraction
same,"Complement component 1 Q subcomponent-binding protein, mitochondrial (C1QBP): Change from GRMD Baseline (fraction)",[1],-0.0848 fraction
same,Connective tissue growth factor (CTGF): Change from GRMD Baseline (fraction),[1],-0.0649 fraction
same,Cyclin-dependent kinase 1:G2/mitotic-specific cyclin-B1 complex (CDC2 CCNB1): Change from GRMD Baseline (fraction),[1],-0.037 fraction
same,Cyclin-dependent kinase 5:Cyclin-dependent kinase 5 activator 1 complex (CDK5 CDK5R1): Change from GRMD Baseline (fraction),[1],-0.0717 fraction
same,Cytokine receptor-like factor 1:Cardiotrophin-like cytokine factor 1 Complex (CRLF1 CLCF1): Change from GRMD Baseline (fraction),[1],0.1068 fraction
same,"Dual 3',5'-cyclic-AMP and -GMP phosphodiesterase 11A (PDE11A): Change from GRMD Baseline (fraction)",[1],0.0578 fraction
same,"Ectodysplasin-A, secreted form (EDA): Change from GRMD Baseline (fraction)",[1],-0.0132 fraction
same,Endothelial cell-selective adhesion molecule (ESAM): Change from GRMD Baseline (fraction),[1],0.0149 fraction
same,Endothelial monocyte-activating polypeptide 2 (AIMP1): Change from GRMD Baseline (fraction),[1],-0.1718 fraction
same,Extracellular superoxide dismutase [Cu-Zn] (SOD3): Change from GRMD Baseline (fraction),[1],-0.0256 fraction
same,Ficolin-2 (FCN2): Change from GRMD Baseline (fraction),[1],-0.1165 fraction
same,Fms-related tyrosine kinase 3 ligand (FLT3LG): Change from GRMD Baseline (fraction),[1],-0.0844 fraction
same,Galactoside 3(4)-L-fucosyltransferase (FUT3): Change from GRMD Baseline (fraction),[1],0.0031 fraction
same,Galectin-10 (CLC): Change from GRMD Baseline (fraction),[1],0.0351 fraction
same,Glial fibrillary acidic protein (GFAP): Change from GRMD Baseline (fraction),[1],-0.0103 fraction
same,Glycylpeptide N-tetradecanoyltransferase 1 (NMT1): Change from GRMD Baseline (fraction),[1],-0.1333 fraction
same,Group 10 secretory phospholipase A2 (PLA2G10): Change from GRMD Baseline (fraction),[1],0.0049 fraction
same,Growth hormone receptor (GHR): Change from GRMD Baseline (fraction),[1],-0.0293 fraction
same,Growth-regulated alpha protein (CXCL1): Change from GRMD Baseline (fraction),[1],-0.0678 fraction
same,Growth/differentiation factor 15 (GDF15): Change from GRMD Baseline (fraction),[1],-0.0948 fraction
same,Hepatocyte growth factor (HGF): Change from GRMD Baseline (fraction),[1],-0.0495 fraction
same,Hepcidin (HAMP): Change from GRMD Baseline (fraction),[1],-0.0269 fraction
same,Immunoglobulin M (IGHM IGJ IGK@ IGL@): Change from GRMD Baseline (fraction),[1],-0.1429 fraction
same,Importin subunit alpha-1 (KPNA2): Change from GRMD Baseline (fraction),[1],-0.0896 fraction
same,Induced myeloid leukemia cell differentiation protein Mcl-1 (MCL1): Change from GRMD Baseline (fraction),[1],-0.0522 fraction
same,Inorganic pyrophosphatase (PPA1): Change from GRMD Baseline (fraction),[1],-0.2863 fraction
same,Insulin-like growth factor-binding protein 7 (IGFBP7): Change from GRMD Baseline (fraction),[1],-0.0264 fraction
same,Integrin alpha-IIb: beta-3 complex (ITGA2B ITGB3): Change from GRMD Baseline (fraction),[1],-0.0613 fraction
same,Interleukin-4 (IL4): Change from GRMD Baseline (fraction),[1],-0.0475 fraction
same,Interleukin-6 receptor subunit beta (IL6ST): Change from GRMD Baseline (fraction),[1],0.0395 fraction
same,Interleukin-8 (CXCL8): Change from GRMD Baseline (fraction),[1],-0.0542 fraction
same,Interleukin-10 receptor subunit beta (IL10RB): Change from GRMD Baseline (fraction),[1],-0.0725 fraction
same,Interleukin-17 receptor C (IL17RC): Change from GRMD Baseline (fraction),[1],-0.0346 fraction
same,Interleukin-18 receptor accessory protein (IL18RAP): Change from GRMD Baseline (fraction),[1],-0.0372 fraction
same,Interleukin-27 (IL27 EBI3): Change from GRMD Baseline (fraction),[1],-0.0259 fraction
same,Interleukin-36 beta (IL36B): Change from GRMD Baseline (fraction),[1],-0.0479 fraction
same,Killer cell immunoglobulin-like receptor 3DS1 (KIR3DS1): Change from GRMD Baseline (fraction),[1],0.0065 fraction
same,Killer cell lectin-like receptor subfamily F member 1 (KLRF1): Change from GRMD Baseline (fraction),[1],-0.0162 fraction
same,Lamin-B1 (LMNB1): Change from GRMD Baseline (fraction),[1],0.0054 fraction
same,Laminin (LAMA1 LAMB1 LAMC1): Change from GRMD Baseline (fraction),[1],-0.1316 fraction
same,Low-density lipoprotein receptor-related protein 1B (LRP1B): Change from GRMD Baseline (fraction),[1],-0.0892 fraction
same,Macrophage-stimulating protein receptor (MST1R): Change from GRMD Baseline (fraction),[1],-0.0588 fraction
same,Matrilin-3 (MATN3): Change from GRMD Baseline (fraction),[1],-0.1231 fraction
same,Matrilysin (MMP7): Change from GRMD Baseline (fraction),[1],-0.0308 fraction
same,N-terminal pro-BNP (NPPB): Change from GRMD Baseline (fraction),[1],-0.0602 fraction
same,NKG2D ligand 3 (ULBP3): Change from GRMD Baseline (fraction),[1],-0.0822 fraction
same,Neural cell adhesion molecule L1-like protein (CHL1): Change from GRMD Baseline (fraction),[1],-0.0329 fraction
same,Neurexophilin-1 (NXPH1): Change from GRMD Baseline (fraction),[1],-0.0271 fraction
same,OX-2 membrane glycoprotein (CD200): Change from GRMD Baseline (fraction),[1],-0.0611 fraction
same,Persephin (PSPN): Change from GRMD Baseline (fraction),[1],-0.013 fraction
same,"Phosphatidylinositol 4,5-bisphosphate 3-kinase catalytic subunit gamma isoform (PIK3CG): Change from GRMD Baseline (fraction)",[1],-0.1006 fraction
same,Pituitary adenylate cyclase-activating polypeptide 27 (ADCYAP1): Change from GRMD Baseline (fraction),[1],0.1436 fraction
same,Platelet factor 4 (PF4): Change from GRMD Baseline (fraction),[1],-0.1659 fraction
same,Platelet glycoprotein VI (GP6): Change from GRMD Baseline (fraction),[1],0.0008 fraction
same,Prolactin (PRL): Change from GRMD Baseline (fraction),[1],-0.0751 fraction
same,Prolactin receptor (PRLR): Change from GRMD Baseline (fraction),[1],-0.064 fraction
same,Proteasome subunit alpha type-6 (PSMA6): Change from GRMD Baseline (fraction),[1],-0.0773 fraction
same,Protein E7_HPV18 (Human-virus): Change from GRMD Baseline (fraction),[1],-0.1102 fraction
same,Proto-oncogene tyrosine-protein kinase receptor Ret (RET): Change from GRMD Baseline (fraction),[1],-0.0388 fraction
same,RNA-binding protein 39 (RBM39): Change from GRMD Baseline (fraction),[1],-0.0705 fraction
same,Ras GTPase-activating protein 1 (RASA1): Change from GRMD Baseline (fraction),[1],-0.1536 fraction
same,Ribosome maturation protein SBDS (SBDS): Change from GRMD Baseline (fraction),[1],-0.2649 fraction
same,SPARC-related modular calcium-binding protein 1 (SMOC1): Change from GRMD Baseline (fraction),[1],-0.0553 fraction
same,Secreted and transmembrane protein 1 (SECTM1): Change from GRMD Baseline (fraction),[1],-0.0267 fraction
same,Serine/threonine-protein kinase PAK 3 (PAK3): Change from GRMD Baseline (fraction),[1],-0.1036 fraction
same,Serine/threonine-protein kinase PAK 7 (PAK7): Change from GRMD Baseline (fraction),[1],-0.037 fraction
same,Serine/threonine-protein kinase pim-1 (PIM1): Change from GRMD Baseline (fraction),[1],-0.0646 fraction
same,Serum amyloid A-1 protein (SAA1): Change from GRMD Baseline (fraction),[1],-0.1842 fraction
same,Sialic acid-binding Ig-like lectin 7 (SIGLEC7): Change from GRMD Baseline (fraction),[1],-0.0326 fraction
same,Small ubiquitin-related modifier 3 (SUMO3): Change from GRMD Baseline (fraction),[1],-0.2515 fraction
same,Stromelysin-1 (MMP3): Change from GRMD Baseline (fraction),[1],0.0153 fraction
same,Stromelysin-2 (MMP10): Change from GRMD Baseline (fraction),[1],-0.0419 fraction
same,Synaptosomal-associated protein 25 (SNAP25): Change from GRMD Baseline (fraction),[1],0.0795 fraction
same,T-cell surface glycoprotein CD4 (CD4): Change from GRMD Baseline (fraction),[1],-0.0326 fraction
same,T-lymphocyte activation antigen CD86 (CD86): Change from GRMD Baseline (fraction),[1],-0.0169 fraction
same,TATA-box-binding protein (TBP): Change from GRMD Baseline (fraction),[1],-0.0838 fraction
same,Thyroxine-binding globulin (SERPINA7): Change from GRMD Baseline (fraction),[1],0.0123 fraction
same,Transcription factor IIIB 90 kDa subunit (BRF1): Change from GRMD Baseline (fraction),[1],-0.0779 fraction
same,Tumor necrosis factor ligand superfamily member 18 (TNFSF18): Change from GRMD Baseline (fraction),[1],-0.0886 fraction
same,Tumor necrosis factor receptor superfamily member 13B (TNFRSF13B): Change from GRMD Baseline (fraction),[1],-0.1006 fraction
same,Tumor necrosis factor receptor superfamily member 13C (TNFRSF13C): Change from GRMD Baseline (fraction),[1],0.0816 fraction
same,Tumor-associated calcium signal transducer 2 (TACSTD2): Change from GRMD Baseline (fraction),[1],-0.0508 fraction
same,Ubiquitin-conjugating enzyme E2 G2 (UBE2G2): Change from GRMD Baseline (fraction),[1],0.0044 fraction
same,WNT1-inducible-signaling pathway protein 1 (WISP1): Change from GRMD Baseline (fraction),[1],-0.2187 fraction
same,WNT1-inducible-signaling pathway protein 3 (WISP3): Change from GRMD Baseline (fraction),[1],-0.0425 fraction
same,alpha-2-macroglobulin receptor-associated protein (LRPAP1): Change from GRMD Baseline (fraction),[1],-0.1071 fraction
same,"cGMP-dependent 3',5'-cyclic phosphodiesterase (PDE2A): Change from GRMD Baseline (fraction)",[1],-0.1496 fraction
same,Change from GRMD Baseline (fraction),"Endothelial cell-specific molecule 1 (ESM1), EDG-5506 treatment to GRMD baseline",-0.0233 fraction
same,Change from GRMD Baseline (fraction),"Endothelial cell-specific molecule 1 (ESM1), Post-Treatment to GRMD baseline",-0.0289 fraction
same,Change from GRMD Baseline (fraction),"Ephrin-B3 (EFNB3), EDG-5506 treatment to GRMD baseline",0.1026 fraction
same,Change from GRMD Baseline (fraction),"Ephrin-B3 (EFNB3), Post-Treatment to GRMD baseline",-0.0272 fraction
same,Change from GRMD Baseline (fraction),"Eukaryotic translation initiation factor 4E-binding protein 2 (EIF4EBP2), EDG-5506 treatment to GRMD baseline",0.16 fraction
same,Change from GRMD Baseline (fraction),"Eukaryotic translation initiation factor 4E-binding protein 2 (EIF4EBP2), Post-Treatment to GRMD baseline",0.0377 fraction
same,common DMD plasma proteomic signature,"GRMD plasma, Somascan",significantly reversed this common DMD signature
same,Change from GRMD Baseline (fraction),"Glutathione S-transferase A3 (GSTA3), EDG-5506 treatment to GRMD baseline",0.0601 fraction
same,Change from GRMD Baseline (fraction),"Glutathione S-transferase A3 (GSTA3), Post-Treatment to GRMD baseline",1.476 fraction
same,Change from GRMD Baseline (fraction),"Heparan-sulfate 6-O-sulfotransferase 1 (HS6ST1), EDG-5506 treatment to GRMD baseline",0.0701 fraction
same,Change from GRMD Baseline (fraction),"Heparan-sulfate 6-O-sulfotransferase 1 (HS6ST1), Post-Treatment to GRMD baseline",-0.1313 fraction
same,Change from GRMD Baseline (fraction),"Histone H3.1 (HIST1H3A), EDG-5506 treatment to GRMD baseline",0.1658 fraction
same,Change from GRMD Baseline (fraction),"Histone H3.1 (HIST1H3A), Post-Treatment to GRMD baseline",0.0723 fraction
same,Change from GRMD Baseline (fraction),"Human Chorionic Gonadotropin (CGA CGB), EDG-5506 treatment to GRMD baseline",0.1653 fraction
